Source: patent US11746133B2, “Cell penetrating peptides that inhibit IRF5 nuclear localization” (Rutgers, The State University of New Jersey, priority 2015, dated 2023)
Residues, ends and D or L forms follow the SMILES beside them.

Legend:
[1] = tested on: Ramos B cells; test: Propidium iodide staining to quantify cell death after inhibitor titration; assay type: cell-based, human; details: 25 uM FITC-conjugated inhibitor, 2 hours
Description: Peptide inhibitor titration and uptake. Ramos B cells or THP1 cells were treated with 0.025, 0.25, 2.5, and 25 uM of FITC conjugated peptide inhibitors for 2 hours. Cells were washed, stained with propidium iodide, and immediately analyzed by flow cytometry for uptake of FITC peptide. For uptake experiments in PBMCs, cells were incubated with 10 uM of either mock, scrambled, N-term′ NLS, or C-term′ NLS FITC conjugated inhibitor for 2 hours. Cells were then washed and blocked as previously outlined, and subsequently stained with CD19-BV510 and CD14-PE (Biolegend Catalog #301806). Cells were fixed, stained with DRAQ5 nuclear dye and analyzed by imagestream for uptake of FITC peptide.
IRF5 Peptide Inhibitors readily enter the cell and have low associated toxicity. IRF5 peptide inhibitors were conjugated to FITC moieties to measure cellular uptake over a dose-dependent response. Ramos B cells were treated with increasing concentrations of FITC-conjugated inhibitor for 2 hours. Cells were washed and subsequently treated with propidium iodide to quantify cell death. […] Cell cycle was measured through propidium iodide incorporation, and quantified through flow cytometry. […] To determine if it would be possible to increase uptake of the inhibitor in B cells, uptake following incubation with 10 uM for 1 hour was measured.

[2] = tested on: Ramos B cells; test: Tryphan blue staining for cell viability after 24 hours with inhibitor; assay type: cell-based, human; details: 25 uM
Description: IRF5 Peptide Inhibitors readily enter the cell and have low associated toxicity. IRF5 peptide inhibitors were conjugated to FITC moieties to measure cellular uptake over a dose-dependent response. Ramos B cells were treated with increasing concentrations of FITC-conjugated inhibitor for 2 hours. Cells were washed and subsequently treated with propidium iodide to quantify cell death. While at the lower doses of 0.025 and 0.25 uM minimal uptake was seen, at 2.5 uM however, greater than 95% of cells were positive for the FITC-conjugated inhibitor (FIG. 1A). In addition, less than 3% of cells stained positive for propidium iodide, indicating low toxicity for the inhibitor at this dose. […] However, no significant increase in uptake was seen between 2.5 uM and 25 uM concentrations of inhibitor. To ensure no impact on cell viability from treatment with the inhibitors, Ramos B cells were treated with varying concentrations of inhibitor as used previously for the titration experiments for 24 hours, and tryphan blue staining was subsequently performed. […] Cell cycle was measured through propidium iodide incorporation, and quantified through flow cytometry. […] To determine if it would be possible to increase uptake of the inhibitor in B cells, uptake following incubation with 10 uM for 1 hour was measured.

[3] = target: T1, IRF5 (Homo sapiens, UniProt Q13568); test: Cell fractionation and Western blot of nuclear IRF5 in primary monocytes; assay type: cell-based; details: isolated primary monocytes, inhibitor then R848 stimulation
T1 construct: endogenous in cells; host or cells: healthy-donor human PBMCs; CD14+ monocytes and CD19+ B cells
T1 sequence (Q13568 1-498): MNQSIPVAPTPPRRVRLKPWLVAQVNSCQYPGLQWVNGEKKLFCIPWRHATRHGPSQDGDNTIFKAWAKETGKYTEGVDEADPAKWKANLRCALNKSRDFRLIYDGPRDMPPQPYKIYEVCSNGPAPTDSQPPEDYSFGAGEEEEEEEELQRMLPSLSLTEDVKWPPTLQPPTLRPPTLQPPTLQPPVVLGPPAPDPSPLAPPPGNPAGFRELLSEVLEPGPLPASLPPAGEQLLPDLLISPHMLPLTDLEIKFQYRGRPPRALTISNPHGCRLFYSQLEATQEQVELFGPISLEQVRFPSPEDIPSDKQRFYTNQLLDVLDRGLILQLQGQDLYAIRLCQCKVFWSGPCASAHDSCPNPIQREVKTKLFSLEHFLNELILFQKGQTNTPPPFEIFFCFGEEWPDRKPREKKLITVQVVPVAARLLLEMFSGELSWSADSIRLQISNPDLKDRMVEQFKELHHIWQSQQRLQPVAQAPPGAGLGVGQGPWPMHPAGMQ
Description: (§1) FIGS. 2A-E. Peptides (non-FITC-conjugated) inhibit R848-induced IRF5 nuclear translocation. Healthy donor PBMCs were pre-incubated with peptide inhibitors for 1 hour and then stimulated for 2 hours with the Toll-like receptor agonist R848. IRF5 cellular localization was determined in CD14+ monocytes (FIG. 2A) and CD19+ B cells (FIG. 2B) by staining with intracellular IRF5 and DRAQ5. Similarity scores between IRF5 and DRAQ5 were determined on the Amnis Imagestream using IDEAS software. […] Lamin B1 serves as a nuclear protein loading control. […] IRF5 band intensity was normalized by Lamin B1, and relative fold change of IRF5 in nuclear portion was calculated over PBS treated sample. In FIGS. 2A-B and E, the bar on the left is mock (NT) and the bar on the right is R848.
Cell Fractionation. Cells were fractionated according to manufacturer's protocol (Cell Signaling, Cell fractionation kit, #9038). Following fractionation, lysates were sonicated and boiled. Nuclear fraction was analyzed by Western blot as follows: 30 μL of lysate was loaded onto a 3-8% NuPAGE® Novex® Tris-Acetate gel (Life Technologies, #EA0378BOX), and transferred onto a 0.45 μm nitrocellulose membrane (Bio-Rad Laboratories). […] Membrane was incubated with Clarity™ ECL Western Blotting Substrate (Bio-Rad Laboratories) and chemiluminescence detected with a ChemiDoc™ MP Imaging System (Bio-Rad Laboratories). […]

[4] = target: T1, IRF5; test: R848-induced IRF5 nuclear translocation in PBMCs by imaging flow cytometry; assay type: cell-based; details: inhibitor 1 hour, then 500 ng/mL R848 2 hours, vs scrambled control
Description: as §1, with “control. Cells were pre-incubated with the indicated inhibitors for 1 hour and then stimulated with LPS for 2 hours.” for “control.”, “In FIGS. 2A-B and E, the bar on the left is mock (NT) and the bar on the right is R848.” left out
Imaging Flow Cytometry. […] Nuclear translocation was quantified in the Amnis IDEAS software suite. […] Finally, IRF5 nuclear translocation was determined through use of the similarity score feature contrasting IRF5 staining with DRAQ5 staining. […]
IRF5 peptide inhibitor blocks IRF5 nuclear translocation in both B cells and monocytes. […] As IRF5 has been implicated in the onset of autoimmune diseases in both monocytes and B cells, it was sought to be determined if IRF5 nuclear translocation could be inhibited in both cell populations following stimulation with the TLR7 agonist R848. […]

| Molecule | associated toxicity (propidium iodide) [1] | viability by tryphan blue staining [2] | levels of IRF5 in the nucleus (cell fractionation, Western blot) [3] | IRF5 nuclear translocation in B cells [4] | IRF5 nuclear translocation in monocytes [4] |
| --- | --- | --- | --- | --- | --- |
| CC[C@H](C)[C@H](NC(=O)[C@H](CCCCN)NC(=O)[C@@H](NC(=O)[C@H](CCC(N)=O)NC(=O)[C@H](CCCNC(=N)N)NC(=O)[C@@H](N)CC(=O)O)[C@@H](C)CC)C(=O)N[C@@H](Cc1c[nH]c2ccccc12)C(=O)N[C@@H](Cc1ccccc1)C(=O)N[C@@H](CCC(N)=O)C(=O)N[C@@H](CC(N)=O)C(=O)N[C@@H](CCCNC(=N)N)C(=O)N[C@@H](CCCNC(=N)N)C(=O)N[C@@H](CCSC)C(=O)N[C@@H](CCCCN)C(=O)N[C@@H](Cc1c[nH]c2ccccc12)C(=O)N[C@@H](CCCCN)C(=O)N[C@@H](CCCCN)C(=O)N1CCC[C@H]1C(=O)N[C@@H](CCCNC(=N)N)C(=O)N[C@@H](CCCNC(=N)N)C(=O)N[C@H](C(=O)N[C@@H](CCCNC(=N)N)C(=O)N[C@@H](CC(C)C)C(=O)N[C@@H](CCCCN)C(=O)O)C(C)C [IRF5 5′NLS] (H-DRQIKIWFQNRRMKWKKPRRVRLK-OH) | minimal associated toxicity | – | – | – | – |
| CC[C@H](C)[C@H](NC(=O)[C@H](CCCCN)NC(=O)[C@@H](NC(=O)[C@H](CCC(N)=O)NC(=O)[C@H](CCCNC(=N)N)NC(=O)[C@@H](N)CC(=O)O)[C@@H](C)CC)C(=O)N[C@@H](Cc1c[nH]c2ccccc12)C(=O)N[C@@H](Cc1ccccc1)C(=O)N[C@@H](CCC(N)=O)C(=O)N[C@@H](CC(N)=O)C(=O)N[C@@H](CCCNC(=N)N)C(=O)N[C@@H](CCCNC(=N)N)C(=O)N[C@@H](CCSC)C(=O)N[C@@H](CCCCN)C(=O)N[C@@H](Cc1c[nH]c2ccccc12)C(=O)N[C@@H](CCCCN)C(=O)N[C@@H](CCCCN)C(=O)N1CCC[C@H]1C(=O)N[C@@H](CCCCN)C(=O)N[C@@H](CCCNC(=N)N)C(=O)N[C@@H](CCCNC(=N)N)C(=O)N[C@@H](CCCNC(=N)N)C(=O)N[C@@H](CC(C)C)C(=O)N[C@H](C(=O)O)C(C)C [Scrambled 5′NLS] (H-DRQIKIWFQNRRMKWKKPKRRRLV-OH; N-terminus and C-terminus assumed) | minimal associated toxicity | decrease in viability | – | – | – |
| DRQIKIWFQNRRMKWKKPREKKLI [IRF5 3′NLS] | – | – | Reduced levels of IRF5 | no inhibition | only slightly reduced nuclear translocation |
